Values quoted from earlier work as cited in US20090202630A1, “ORALLY DISINTEGRATING TABLET COMPOSITIONS OF RANITIDINE AND METHODS OF MANUFACTURE” (priority 2008, published 2009).
Counter-ions that a name gives are not always drawn.

solubility in water (in words): freely soluble
SMILES: CNC(=C[N+](=O)[O-])NCCSCc1ccc(CN(C)C)o1 [Ranitidine hydrochloride]
